Test [1] deals with PC-3. As to the kind of experiment: Antiproliferative activity against PC3 cells at 1 uM by MTT assay after 72 hrs. Format: functional. To be noted: Homo sapiens, PC-3, 72 h. (Tetrazolium assays rely on reduction of a dye to a coloured formazan, in cell work by metabolically active cells.)
Test [2] concerns PC-3. As to the kind of experiment: Antiproliferative activity against PC3 cells at 5 uM by MTT assay after 72 hrs. To be noted: Homo sapiens, PC-3, 72 h. It counts as functional.
The subject of test [3] is PC-3. In words: Antiproliferative activity against PC3 cells at 10 uM by MTT assay after 72 hrs. Format: functional. The conditions noted are these: Homo sapiens, PC-3, 72 h.
Test [4] deals with A-375. In words: Antiproliferative activity against A375 cells at 1 uM by MTT assay after 72 hrs. The conditions noted are these: Homo sapiens, A-375, 72 h. Format: functional.
Test [5] relates to A-375. As to the kind of experiment: Antiproliferative activity against A375 cells at 5 uM by MTT assay after 72 hrs. It counts as functional. To be noted: Homo sapiens, A-375, 72 h.
The subject of test [6] is A-375. In words: Antiproliferative activity against A375 cells at 10 uM by MTT assay after 72 hrs. Format: functional. The conditions noted are these: Homo sapiens, A-375, 72 h.
Test [7] concerns A-431. In words: Antiproliferative activity against A431 cells at 1 uM by MTT assay after 72 hrs. It counts as functional. The conditions noted are these: Homo sapiens, A-431, 72 h.
For test [8], the system named is A-431. As to the kind of experiment: Antiproliferative activity against A431 cells at 5 uM by MTT assay after 72 hrs. It counts as functional. To be noted: Homo sapiens, A-431, 72 h.
Test [9] concerns A-431. As to the kind of experiment: Antiproliferative activity against A431 cells at 10 uM by MTT assay after 72 hrs. Format: functional. The conditions noted are these: Homo sapiens, A-431, 72 h.
A short description of test [10]: Antiproliferative activity against Bcap37 cells at 1 uM by MTT assay after 72 hrs. Format: functional, Homo sapiens.
Test [11] is described as follows: Antiproliferative activity against Bcap37 cells at 5 uM by MTT assay after 72 hrs. It counts as functional, Homo sapiens.
Test [12] is described as follows: Antiproliferative activity against Bcap37 cells at 10 uM by MTT assay after 72 hrs. It counts as functional, Homo sapiens.

As a reminder, the inhibition is the relative decrease from the control value, in per cent.

For `CCOP(=O)(OCC)C(Nc1nc2c(C)cccc2s1)c1ccc(C(F)(F)F)cc1` (stereo unspecified), the inhibition at 1 µM in test [1] was 12.6%; in test [4], -10.2%; in [7] it was 0.36%; in test [10], -5.2%. Also, the inhibition at 5 µM in [2] worked out at 13.5%; in test [5], 1.6%; in [8], 2.06%; in [11], 9.8%. Besides, the inhibition at 10 µM in test [3] came to 49.3%; in [6], 14.2%; in test [9], 16.9%; in test [12], 16.7%.

Regarding `CCOP(=O)(OCC)C(Nc1nc2ccc(OC)cc2s1)c1ccccc1F` (stereo unspecified), the inhibition at 1 µM worked out at 16.8% in test [1], 7.5% in [4], 4.5% in test [7] and 20.5% in test [10]. Moreover, the inhibition at 5 µM in [2] turned out to be 22.5%; in test [5], 7.9%; in test [8], 12.3%; in [11], 34.5%. The inhibition at 10 µM in test [3] came to 38.9%; in [6], 15.7%; in test [9], 22.1%; in test [12] it was 49.4%.

For the compound `CCCOP(=O)(OCCC)C(Nc1nc2c(C)cccc2s1)c1ccccc1F` (stereo unspecified), the inhibition at 1 µM in test [1] was 21.7%; in [4], -0.2%; in [7], 15.9%; in [10], -18.9%. Moreover, the inhibition at 5 µM was determined as 29.4% in test [2], 4.8% in [5], 27.3% in [8] and 0.8% in test [11]. Besides, the inhibition at 10 µM in test [3] amounted to 43.3%; in test [6] it was 4.3%; in test [9], 31.7%; in test [12] it was 21.7%.

Regarding `Cc1cccc2sc(NC(c3ccc(C(F)(F)F)cc3)P(=O)(OC(C)C)OC(C)C)nc12` (stereo unspecified), the inhibition at 1 µM in test [1] was 6.3%; in test [4] it was -1.3%; in test [7] it was 17.3%; in test [10], -0.7%. Besides, the inhibition at 5 µM in test [2] is 15.3%; in test [5], 8.6%; in [8], 20.5%; in test [11], 11.2%. In addition, the inhibition at 10 µM in [3] is 25.9%; in [6], 9.1%; in [9], 29.5%; in test [12] it was 22.7%.

`CCCCOP(=O)(OCCCC)C(Nc1nc2ccc(OC)cc2s1)c1ccccc1F` (stereo unspecified): the inhibition at 1 µM in test [1] was -6.6%; in test [4] it was -6.2%; in test [7], -3.7%; in [10], 23.6%. The inhibition at 5 µM came to 5.3% in test [2], 3.5% in test [5], 5.4% in test [8] and 38.2% in test [11]. For the same compound, the inhibition at 10 µM was determined as 13.2% in [3], 17.4% in test [6], 28.8% in test [9] and 44.2% in test [12].

As for `CCOP(=O)(OCC)C(Nc1nc2ccc(OC)cc2s1)c1ccc(F)cc1` (stereo unspecified), the inhibition at 1 µM in test [1] was found to be 32.1%; in [4], 8%; in test [7], 11.2%; in test [10] it was 10%. The inhibition at 5 µM in test [2] is 41%; in test [5], 10.9%; in [8] it was 20.9%; in [11], 39%. The inhibition at 10 µM in test [3] is 49.5%; in test [6] it was 34.5%; in [9] it was 31.2%; in [12] it was 49.9%.

As for `CCOP(=O)(OCC)C(Nc1nc2c(C)cccc2s1)c1ccccc1F` (stereo unspecified), the inhibition at 1 µM in [1] is 3.51%; in [4], -13.9%; in test [7], 17.7%; in test [10], 35.8%. Moreover, the inhibition at 5 µM in [2] was 22.9%; in test [5], -6.1%; in test [8], 23.3%; in test [11], 42.6%. Also, the inhibition at 10 µM in [3] is 41.9%; in test [6], 9.2%; in test [9] it was 35.3%; in [12], 58.9%.

With `CCCCOP(=O)(OCCCC)C(Nc1nc2c(C)cccc2s1)c1ccc(C(F)(F)F)cc1` (stereo unspecified), the inhibition at 1 µM is 5% in test [1], -3.2% in test [4], 37.7% in test [7] and 0.1% in [10]. The inhibition at 5 µM in [2] was 31.6%; in test [5], 21.6%; in test [8], 40.8%; in test [11], 9.2%. Also, the inhibition at 10 µM in test [3] was 36%; in test [6] it was 31.5%; in test [9] it was 57.4%; in test [12], 20.3%.

In the case of `COc1ccc2nc(NC(c3ccccc3F)P(=O)(OC(C)C)OC(C)C)sc2c1` (stereo unspecified), the inhibition at 1 µM is -8.5% in test [1], -4.3% in test [4], -7.4% in test [7] and 39.7% in [10]. For the same compound, the inhibition at 5 µM was 2.1% in test [2], 1.7% in [5], 7.5% in [8] and 43.2% in test [11]. The inhibition at 10 µM in test [3] turned out to be 18.5%; in test [6], 2.8%; in [9], 16.7%; in test [12] it was 50.4%.

Take `CCCCOP(=O)(OCCCC)C(Nc1nc2c(C)cccc2s1)c1ccccc1F` (stereo unspecified): the inhibition at 1 µM turned out to be 52.1% in test [1], 11.2% in test [4], 32.1% in test [7] and 10% in test [10]. Further, the inhibition at 5 µM in test [2] stood at 86%; in test [5], 25.6%; in test [8] it was 49%; in test [11], 29%. Also, the inhibition at 10 µM in test [3] is 89.1%; in test [6] it was 32.1%; in [9] it was 72.1%; in [12] it was 38.1%.

Turning to `CCCOP(=O)(OCCC)C(Nc1nc2ccc(OC)cc2s1)c1ccccc1F` (stereo unspecified), the inhibition at 1 µM was 5% in [1], 10.3% in test [4], 35.3% in [7] and 21.3% in test [10]. For the same compound, the inhibition at 5 µM worked out at 15.8% in [2], 13.9% in [5], 49.2% in test [8] and 25.1% in test [11]. Also, the inhibition at 10 µM in test [3] stood at 28.7%; in test [6], 23.8%; in [9] it was 58.1%; in [12] it was 27.1%.

As to `COc1ccc2nc(NC(c3ccccc3F)P(=O)(OC)OC)sc2c1` (stereo unspecified), the inhibition at 1 µM in [1] turned out to be 21.4%; in test [4], 4.3%; in [7], 1.9%; in test [10], 11.9%. The inhibition at 5 µM in test [2] turned out to be 26.6%; in test [5] it was 10.1%; in test [8], 7.9%; in [11], 17.8%. In addition, the inhibition at 10 µM is 33.3% in test [3], 11.4% in test [6], 8.64% in [9] and 25.1% in test [12].

On to `COP(=O)(OC)C(Nc1nc2c(C)cccc2s1)c1ccc(C(F)(F)F)cc1` (stereo unspecified), for which the inhibition at 1 µM in [1] is 4%; in [4], 1.8%; in [7] it was 22.1%; in [10], -13.2%. The inhibition at 5 µM was 4.6% in test [2], 19.2% in test [5], 26% in test [8] and -0.8% in [11]. Besides, the inhibition at 10 µM was found to be 8.9% in test [3], 20.8% in [6], 47.3% in test [9] and 2.5% in [12].
